Activity calls are given as the source filed them. No cut-off for these calls is given here.
Columns and labels:
DU-145 [1] = test: Induction of apoptosis in human DU-145 cells assessed as induction of PARP cleavage at upto 10 uM measured after 48 hrs by […]; assay type: functional, cell-based
MDA-MB-231 [2] = test: Induction of apoptosis in human MDA-MB-231 cells assessed as late apoptotic cells at 5 uM measured after 48 hrs by annexin V-FITC and PI staining based flow cytometry analysis (reference value: 3.1%); assay type: functional
DU-145 [3] = test: Induction of apoptosis in human DU-145 cells assessed as early apoptotic cells at 10 uM measured after 48 hrs by annexin V-FITC and PI staining based flow cytometry analysis (reference value: 2.5%); assay type: functional
[4] = target: T1, Signal transducer and activator of transcription 3 (Homo sapiens, UniProt P40763); test: Inhibition of STAT3 phosphorylation at Tyr705 residue in human MDA-MB-231 cells incubated for 24 hrs by Western blot analysis; assay type: cell-based; details: dose <= 10.0 µM
PANC-1 = test: Antiproliferative activity against human PANC-1 cells assessed as inhibition of cell growth measured after 96 hrs by MTT assay; assay type: functional, cell-based; details: PANC-1, 96 h
MDA-MB-231 [5] = test: Induction of apoptosis in human MDA-MB-231 cells assessed as early apoptotic cells at 1 uM measured after 48 hrs by annexin V-FITC and PI staining based flow cytometry analysis (reference value: 6.7%); assay type: functional
[6] = MRT (0 to t) in ICR mouse at 50 mg/kg, po measured upto 96 hrs by HPLC-MS/MS analysis; assay type: ADME, organism-based; details: in vivo
MDA-MB-231 [7] = test: Induction of apoptosis in human MDA-MB-231 cells assessed as late apoptotic cells at 10 uM measured after 48 hrs by annexin V-FITC and PI staining based flow cytometry analysis (reference value: 3.1%); assay type: functional
DU-145 [8] = test: Induction of apoptosis in human DU-145 cells assessed as early apoptotic cells at 1 uM measured after 48 hrs by annexin V-FITC and PI staining based flow cytometry analysis (reference value: 2.5%); assay type: functional
[9] = target: T2, Signal transducer and activator of transcription 5A (Homo sapiens) (UniProt P42229); test: Inhibition of STAT5 phosphorylation in human DU-145 cells at 10 uM measured after 24 hrs by Western blot analysis; assay type: cell-based
T2 sequence (whole entry): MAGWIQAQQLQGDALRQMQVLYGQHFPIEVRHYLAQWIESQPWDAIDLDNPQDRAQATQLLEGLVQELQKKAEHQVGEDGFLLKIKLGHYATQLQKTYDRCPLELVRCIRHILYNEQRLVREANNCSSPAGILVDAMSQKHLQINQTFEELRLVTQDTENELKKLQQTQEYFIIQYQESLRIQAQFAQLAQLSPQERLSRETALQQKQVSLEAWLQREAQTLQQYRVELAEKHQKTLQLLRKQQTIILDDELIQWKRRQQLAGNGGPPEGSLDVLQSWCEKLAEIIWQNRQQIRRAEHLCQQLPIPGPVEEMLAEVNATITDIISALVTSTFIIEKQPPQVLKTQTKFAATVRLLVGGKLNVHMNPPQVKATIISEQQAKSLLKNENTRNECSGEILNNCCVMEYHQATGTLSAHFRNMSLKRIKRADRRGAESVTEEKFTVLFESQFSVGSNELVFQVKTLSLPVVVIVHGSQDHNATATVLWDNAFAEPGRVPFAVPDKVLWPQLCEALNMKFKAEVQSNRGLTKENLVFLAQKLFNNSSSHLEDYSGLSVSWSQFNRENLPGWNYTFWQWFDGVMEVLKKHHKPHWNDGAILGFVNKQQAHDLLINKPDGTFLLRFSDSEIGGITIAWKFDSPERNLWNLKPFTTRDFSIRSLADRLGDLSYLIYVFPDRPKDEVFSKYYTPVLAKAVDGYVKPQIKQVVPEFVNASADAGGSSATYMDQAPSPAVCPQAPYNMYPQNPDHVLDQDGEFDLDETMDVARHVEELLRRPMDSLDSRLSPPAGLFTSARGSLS

[10] = target: T1, Signal transducer and activator of transcription 3; test: Inhibition of STAT3 dimerization in human DU-145 cells assessed as increase in amount of STAT3 monomer at upto 10 uM measured after 12 hrs; assay type: cell-based
[11] = Toxicity in Balb/c mouse assessed as drug tolerance at 50 mg/kg, ip administered once daily for 16 days; assay type: organism-based; details: in vivo, 384 h, time 16 day
DU-145 [12] = test: Antitumor activity against human DU-145 cells xenografted in Balb/c nude mouse model assessed as tumor growth inhibition at 50 mg/kg, ip administered once daily for 16 days by vernier caliper method relative to control; assay type: functional; details: DU-145, 384 h, time 16 day, read-out: TGI

T1 sequence (P40763 whole entry): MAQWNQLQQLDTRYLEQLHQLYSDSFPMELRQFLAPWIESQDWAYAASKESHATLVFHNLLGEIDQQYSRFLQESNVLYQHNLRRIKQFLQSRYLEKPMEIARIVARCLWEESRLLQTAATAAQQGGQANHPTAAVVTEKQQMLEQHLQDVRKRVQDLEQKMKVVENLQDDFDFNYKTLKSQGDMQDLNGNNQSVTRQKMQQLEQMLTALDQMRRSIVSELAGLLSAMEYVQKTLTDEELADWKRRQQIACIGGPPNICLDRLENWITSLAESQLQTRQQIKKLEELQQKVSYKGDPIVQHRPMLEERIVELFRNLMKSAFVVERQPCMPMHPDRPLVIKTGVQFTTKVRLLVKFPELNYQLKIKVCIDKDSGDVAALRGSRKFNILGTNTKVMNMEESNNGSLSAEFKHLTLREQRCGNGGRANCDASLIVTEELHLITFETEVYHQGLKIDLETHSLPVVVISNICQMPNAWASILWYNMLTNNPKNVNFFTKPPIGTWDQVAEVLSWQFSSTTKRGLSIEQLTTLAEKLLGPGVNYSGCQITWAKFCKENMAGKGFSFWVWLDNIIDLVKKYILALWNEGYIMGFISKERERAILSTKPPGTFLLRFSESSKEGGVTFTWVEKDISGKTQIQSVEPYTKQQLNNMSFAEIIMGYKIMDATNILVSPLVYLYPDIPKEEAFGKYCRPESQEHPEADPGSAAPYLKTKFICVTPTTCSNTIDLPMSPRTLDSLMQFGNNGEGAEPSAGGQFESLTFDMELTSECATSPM

inhibition [4]: Dose-Dependent Effect
IC50 (PANC-1): 2.43 µM
MRT last at 96 h [6]: 17.1 h
inhibition [9]: inactive
inhibition [10]: Active
SMILES: CN1CCN(c2cc3c(cc2Nc2nnc(-c4ccc(C(F)(F)F)cc4)s2)nc(-c2ccc(F)cc2)n3C2CC2)CC1
Activity (DU-145 [1]): Active
Activity (MDA-MB-231 [2]): 10.7%
Activity (DU-145 [3]): 34%
Activity (MDA-MB-231 [5]): 5.9%
Activity (MDA-MB-231 [7]): 20.1%
Activity (DU-145 [8]): 2.1%
Activity [11]: Non-Toxic
inhibition in vivo at 50 mg/kg (DU-145 [12]): 65.3%

— ChEMBL document CHEMBL5321275, “Discovery, Optimization, and Evaluation of Novel N-(Benzimidazol-5-yl)-1,3,4-thiadiazol-2-amine Analogues as Potent STAT3 Inhibitors for Cancer Treatment” (J Med Chem, 2023)
